In patent US10167518B2, “Methods of stratifying patients for treatment with retinoic acid receptor-alpha agonists” (Syros Pharmaceuticals, Inc., priority 2015, dated 2019):

Columns and labels:
RAR beta = biological target: T1, RAR beta (Homo sapiens, UniProt P10826); experiment: SelectScreen Nuclear Profiling, agonist specificity for RAR beta; format: cell-based
T1 sequence (P10826 1-455): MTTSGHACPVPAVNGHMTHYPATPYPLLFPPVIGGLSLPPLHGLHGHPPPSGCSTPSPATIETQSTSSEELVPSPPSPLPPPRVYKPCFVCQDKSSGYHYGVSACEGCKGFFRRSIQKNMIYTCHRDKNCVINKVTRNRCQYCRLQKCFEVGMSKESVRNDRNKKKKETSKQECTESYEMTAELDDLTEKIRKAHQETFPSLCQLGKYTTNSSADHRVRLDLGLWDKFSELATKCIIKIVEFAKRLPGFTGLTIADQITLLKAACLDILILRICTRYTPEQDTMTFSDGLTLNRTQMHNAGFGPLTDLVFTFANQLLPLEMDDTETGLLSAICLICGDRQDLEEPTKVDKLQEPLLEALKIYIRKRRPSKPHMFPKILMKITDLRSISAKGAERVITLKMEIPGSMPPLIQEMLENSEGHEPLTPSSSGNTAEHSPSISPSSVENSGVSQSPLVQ
Experimental: (§1) The agonist specificity of the various test compounds for each type of RaR is assessed at Life Technologies using their SelectScreen® Nuclear Profiling Services.

RAR gamma = biological target: T2, RAR gamma (Homo sapiens, UniProt P13631); experiment: SelectScreen Nuclear Profiling, agonist specificity for RAR gamma; format: cell-based
T2 sequence (P13631 1-454): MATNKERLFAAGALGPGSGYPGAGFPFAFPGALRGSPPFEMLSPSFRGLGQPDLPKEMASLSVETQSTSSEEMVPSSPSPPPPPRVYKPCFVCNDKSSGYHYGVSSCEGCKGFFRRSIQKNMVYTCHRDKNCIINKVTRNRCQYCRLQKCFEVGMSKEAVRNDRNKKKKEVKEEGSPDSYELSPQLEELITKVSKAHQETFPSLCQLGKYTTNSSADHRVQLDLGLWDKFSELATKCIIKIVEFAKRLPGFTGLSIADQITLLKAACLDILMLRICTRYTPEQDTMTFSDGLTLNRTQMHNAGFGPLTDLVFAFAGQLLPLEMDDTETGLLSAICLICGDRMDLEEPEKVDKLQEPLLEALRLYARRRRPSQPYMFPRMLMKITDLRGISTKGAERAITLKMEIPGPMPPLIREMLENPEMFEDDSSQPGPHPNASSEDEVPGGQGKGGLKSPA
Experimental: as §1

RAR alpha = biological target: T3, RAR alpha (Homo sapiens, UniProt P10276); experiment: SelectScreen Nuclear Profiling, agonist specificity for RAR alpha; format: cell-based; conditions: for EC50 / RAR alpha % max: agonist specificity, SelectScreen; for RAR-a/RAR-g Selectivity % max: ratio of RAR alpha to RAR gamma % max; for RAR-a/RAR-g Selectivity EC50: ratio of RAR gamma to RAR alpha EC50
T3 sequence (P10276 1-462): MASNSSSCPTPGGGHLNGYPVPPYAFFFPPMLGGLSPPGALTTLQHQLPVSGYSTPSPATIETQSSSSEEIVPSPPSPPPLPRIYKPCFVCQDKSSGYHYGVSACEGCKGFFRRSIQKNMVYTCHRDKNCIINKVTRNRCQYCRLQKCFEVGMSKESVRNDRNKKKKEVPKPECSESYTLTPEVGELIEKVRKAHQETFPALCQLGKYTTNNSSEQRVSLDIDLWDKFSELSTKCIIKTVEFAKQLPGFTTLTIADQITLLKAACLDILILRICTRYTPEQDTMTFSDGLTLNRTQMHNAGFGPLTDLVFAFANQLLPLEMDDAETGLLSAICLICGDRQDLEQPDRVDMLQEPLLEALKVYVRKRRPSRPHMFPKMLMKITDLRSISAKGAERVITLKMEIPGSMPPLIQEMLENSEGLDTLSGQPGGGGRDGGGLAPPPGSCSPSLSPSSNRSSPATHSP
Experimental: as §1

[1] = test system: AM5512 AML patient sample-derived xenograft; experiment: AML patient sample-derived xenograft AM5512, % human CD45+ cells and survival
Experimental: AM5512 xenograft mice are prepared as described above.

[2] = test system: breast cancer cell lines (SKBR3, Au565, ZR75, Hcc1143); experiment: Cell viability screening of breast cancer cell lines (ATPlite/CyQuant); format: cell-based; conditions: four breast cancer cell lines, 5 days of treatment, FIG. 7
Experimental: All cell lines are obtained from ATCC and cultured at 37° C. in 5% CO2. All are grown in RPMI1640 supplemented with 10 mM HEPES buffer, 2 mM L-glutamine, 50 U/mL penicillin, 50 […] and 10% fetal bovine serum (FBS, all from Invitrogen). Cells lines included AU565, SKBR3, T47D, HCC1143, MCF7, ZR-75-1, and HCC1569.
On the day of the experiment, cells are homogenized using Accumax (EMD Millipore), counted, and adjusted to 40,000 cells/ml for breast cancer lines and 60,000 cells/mL for AML in appropriate growth media. Using a Biotek EL406, 50 μl of cells are distributed into white (ATPlite) or black (CyQuant) 384-well plates (Thermo). Cells are returned to 37° C. incubator to allow adhesion. After three hours, compounds are added to plates using a 20 nl 384-well pin transfer manifold on a Janus workstation. […]
Cell viability is read out using ATPlite (Perkin Elmer) or CyQuant (Life Technologies). […] Plates are incubated for 15 min at room temperature before the luminescence signal was read on an Envision Plate Reader (Perkin Elmer). […] Reagent are added using a multichannel pipet and plates are replaced in incubator for 30 minutes prior to readout on an Envision Plate Reader (Perkin Elmer).
Data acquired as described is stored and grouped in Microsoft's Excel and analyzed using GraphPad Prism Software. […]

[3] = test system: AML cell lines (SigM5, OCI M1, MV411, HEL, Kasumi); experiment: Cell viability screening of AML cell lines (ATPlite/CyQuant); format: cell-based
Experimental: On the day of the experiment, cells are homogenized using Accumax (EMD Millipore), counted, and adjusted to 40,000 cells/ml for breast cancer lines and 60,000 cells/mL for AML in appropriate growth media. Using a Biotek EL406, 50 μl of cells are distributed into white (ATPlite) or black (CyQuant) 384-well plates (Thermo). Cells are returned to 37° C. incubator to allow adhesion. After three hours, compounds are added to plates using a 20 nl 384-well pin transfer manifold on a Janus workstation. Stocks are arrayed in 10 point quadruplicate dose response in DMSO stock in 384-well compound plates. After addition of compound, plates are incubated for five or ten days in a 37° C. incubator.
Cell viability is read out using ATPlite (Perkin Elmer) or CyQuant (Life Technologies). For ATPlite, plates are removed from the incubator and brought to room temperature prior to use. Lyophilized powder of ATPlite reagent is resuspended in lysis buffer and diluted 1:2 with distilled water. 25 μL of this solution is added to each well using the Biotek liquid handler. Plates are incubated for 15 min at room temperature before the luminescence signal was read on an Envision Plate Reader (Perkin Elmer). For CyQuant, reagents are mixed as per manufacturer's instructions in PBS (Gibco). Reagent are added using a multichannel pipet and plates are replaced in incubator for 30 minutes prior to readout on an Envision Plate Reader (Perkin Elmer).
Data acquired as described is stored and grouped in Microsoft's Excel and analyzed using GraphPad Prism Software. […] Edge wells were excluded.

[4] = test system: HCC1954 tumor cells xenograft; experiment: HCC1954 breast cancer cell line-derived xenograft, tumor volume; format: in vivo, mice
Experimental: Breast cancer cell line (HCC1954)-derived xenograft models in BALB/c nude immunocompromised mice are prepared by Crown Biosciences (Beijing, China) essentially as follows.
Six to eight week old BALB/c nude immunocompromised mice, weighing between 18-20 g are inoculated subcutaneously at the right flank region with HCC1954 tumor cells (5×10^6) in 0.1 ml of PBS (1:1 matrigel) for tumor development. […] The final dosage in mice is 6 mg per kg per day in the high dose arm (n=10) and 3 mg per kg per day in the low dose arm (n=10) in a 10 ml/kg volume. […] Tumor volume is measured twice weekly by caliper measurement.

[5] = test system: AM8096 AML patient sample-derived xenograft; experiment: AML patient sample-derived xenograft AM8096, % human CD45+ cells; format: in vivo, mice; conditions: 6 mg per kg daily oral, after 35 days
Experimental: (§2) Different AML patient sample (AM8096, AM5512, AM7577 and AM7440)-derived xenograft models in BALB/c nude immunocompromised mice are prepared by Crown Biosciences (Beijing, China) essentially as follows.
(§3) Approximately 2×10^6 cells from each patient sample are suspended in 100 μL PBS and injected into separate mice (n=3 for each different patient sample and for the control) by IV tail injection. For AM5512, AM7577 and AM7440 xenografts, tumor burden is considered high enough to start treatment when the concentration of human CD45^+ cells reaches ˜1-5% in the animal's peripheral blood. Human CD45^+ cells are detected in mouse blood (obtained via eye bleeds) using a fluorescence activated cell sorter and FITC anti-human CD45 (Biolegend, Cat#304037). For AM8096 xenografts, treatment is begun 40 days after injection of cells.
(§4) Human CD45^+ cell levels in peripheral blood from the treated animals and control animals are measured once a week.

[6] = test system: AM7577 AML patient sample-derived xenograft; experiment: AML patient sample-derived xenograft AM7577, % human CD45+ cells; format: in vivo, mice; conditions: 6 mg per kg daily oral
Experimental: as §2, §3, §4

[7] = test system: AM7440 AML patient sample-derived xenograft; experiment: AML patient sample-derived xenograft AM7440, % human CD45+ cells; format: in vivo, mice; conditions: 6 mg per kg daily oral
Experimental: as §2, §3, §4

Row | RAR beta % max (RAR beta) | RAR gamma % max (RAR gamma) | EC50 (RAR alpha) | RAR alpha % max (RAR alpha) | EC50 (RAR beta) | EC50 (RAR gamma) | SMILES | also measured
1 | 78.24% | 87.06% |  |  |  |  | CC1(C)CCC(C)(C)c2cc(C(=O)Nc3ccc(C(=O)O)cc3)ccc21 [AM580] | 
2 | 0% | −13.41% | 27.4 nM | −3.417% |  | 512 nM | CC1(C)CC=C(C#Cc2ccccc2)c2cc(/C=C/c3ccc(C(=O)O)cc3)ccc21 [BMS493] | 
3 | 6% | 19.83% | 1.43 nM | 122.2% | 701 nM | 136 nM | CC1(C)C(=O)C(C)(C)c2cc(C(=O)Nc3ccc(C(=O)O)cc3)ccc21 [BMS753] | specificity for RARA over RaR-γ (RAR alpha; comparison among tested compounds): greatest specificity for RARA over RaR-γ; RAR-a/RAR-g Selectivity % max (RAR alpha): 6.1624; RAR-a/RAR-g Selectivity EC50 (RAR alpha): 94.8396

More lines, now with the values behind:

Row | SMILES | RAR beta % max (RAR beta) | RAR gamma % max (RAR gamma) | EC50 (RAR alpha) | RAR alpha % max (RAR alpha) | EC50 (RAR beta) | EC50 (RAR gamma) | also measured
4 | COc1ccc(-c2ccc3cc(C(=O)O)ccc3c2)cc1C12CC3CC(CC(C3)C1)C2 [Adapalene] | 69.36% | 87.7% | 5.01 nM | 102.2% | 9.73 nM |  | 
5 | CC1(C)CC=C(c2cnc3ccccc3c2)c2cc(C(=O)Nc3ccc(C(=O)O)cc3)ccc21 [BMS195614] | 0% | −14.57% | 1340 nM | −31.01% |  | 434 nM | 
6 | CC1(C)CCSc2ccc(C#Cc3ccc(C(=O)O)cn3)cc21 [Tazarotenic, Tazarotenic acid] | 71.88% | 78.33% | 0.353 nM | 121.4% | 5.17 nM | 1.1 nM | RAR-a/RAR-g Selectivity % max (RAR alpha): 1.5499; RAR-a/RAR-g Selectivity EC50 (RAR alpha): 3.1172
7 | CC1=C(/C=C/C(C)=C/C=C/C(C)=C/C(=O)O)C(C)(C)CCC1 [Tretinoin, all-trans retinoic acid] | 92.77% | 99.37% |  | 149.4% |  |  | % CD45+ cells vs vehicle control ([1]; 4 mg/kg BID, after 14 days): reduction in % CD45^+ cells; survival ([1]; 4 mg/kg BID, n=7): none of those mice survived past day 21
8 | CC1(C)CCC(C)(C)c2cc(NC(=O)c3ccc(C(=O)O)cc3)ccc21 [tamibarotene] | 114.9% | 106.1% |  |  |  |  | sensitivity order of breast cancer cell lines (viability) [2]: SKBR3>Au565>ZR75>Hcc1143; responsiveness of cell line ([3]; HEL cells): non-responsive; responsiveness of cell line ([3]; MV411 cells): tamibarotene-responsive; sensitivity order of AML cell lines (viability) ([3]; SigM5, MV411, HEL, Kasumi, FIGS. 23A-B): SigM5>MV411>HEL=Kasumi; sensitivity order of AML cell lines (viability) ([3]; three AML cell lines, 5 days of treatment, FIG. 9): SigM5>OCI M1>HEL; tumor volume ([4]; 3 and 6 mg per kg per day, QD PO, up to 21 days): reduces tumor volume in this model in a dose-dependent manner; reduction in tumor volume, p (t-test, Welch's correction) ([4]; high dose arm, 6 mg per kg per day QD PO): 0.0048; reduction in tumor volume, p (t-test, Welch's correction) ([4]; low dose arm, 3 mg per kg per day QD PO): 0.0552; total % of CD45+ cells and % in blood, bone marrow and spleen vs vehicle [5]: significant reduction; % human CD45+ cells (overall, blood, bone marrow, spleen) vs vehicle [6]: no significant reduction; tumor volume (overall, blood, bone marrow, spleen) vs vehicle [7]: no significant reduction; % CD45+ cells vs vehicle control and ATRA-treated animals ([1]; 3 mg/kg BID, after 28 days): significant reduction; animals surviving the course of the experiment ([1]; 3 mg/kg BID, n=7): 5 of the 7; total % of CD45+ cells and % in blood, bone marrow and spleen vs vehicle ([1]; 6 mg per kg daily oral, after 35 days): significant reduction
